{"source": "patent US8124357B2", "about": "(priority 2005, dated 2012)", "system": "Neuro-2A cells", "type": "cell-based"}
{"smiles": "CC1=C(/C=C/C(C)=C/C=C/C(C)=C/C(=O)O)C(C)(C)CCC1", "note": "[all trans retinoic acid, All Trans-Retinoic acid]", "values": [{"measurement": "BoNT/A SNAP25197-cleavage product (uptake of BoNT/A) after differentiation reagent", "value": "increase"}]}
